{"source": "patent US20180325914A1", "about": "“INCREASING STORAGE OF VITAMIN A, VITAMIN D AND/OR LIPIDS” (Salk Institute for Biological Studies, priority 2014, published 2018)", "system": "primary HSCs"}
{"smiles": "Cc1sc2c(c1C)C(c1ccc(Cl)cc1)=N[C@@H](CC(=O)OC(C)(C)C)c1nnc(C)n1-2", "note": "[JQ1, (S)-tert-butyl 2-(4-(4-chlorophenyl)-2,3,9-trimethyl-6H-thieno[3,2-f][1,2,4]triazolo[4,3-a][1,4]diazepin-6-yl)acetate]", "values": [{"measurement": "Ccnb2 value_2", "setting": "mRNA-Seq, sample Day_6_JQ1", "value": 22.7753}, {"measurement": "Ccnf value_2", "setting": "mRNA-Seq, sample Day_6_JQ1", "value": 11.7934}, {"measurement": "Cdc45 value_2", "setting": "mRNA-Seq, sample Day_6_JQ1", "value": 7.419}, {"measurement": "Cdca3 value_2", "setting": "mRNA-Seq, sample Day_6_JQ1", "value": 31.4087}, {"measurement": "Cdk1 value_2", "setting": "mRNA-Seq, sample Day_6_JQ1", "value": 28.779}, {"measurement": "Cdkn2c value_2", "setting": "mRNA-Seq, sample Day_6_JQ1", "value": 16.1063}, {"measurement": "Cend1 value_2", "setting": "mRNA-Seq, sample Day_6_JQ1", "value": 7.615}, {"measurement": "Cenpe value_2", "setting": "mRNA-Seq, sample Day_6_JQ1", "value": 9.129}, {"measurement": "Cenph value_2", "setting": "mRNA-Seq, sample Day_6_JQ1", "value": 8.899}, {"measurement": "Chaf1a value_2", "setting": "mRNA-Seq, sample Day_6_JQ1", "value": 16.8473}, {"measurement": "Ckap2l value_2", "setting": "mRNA-Seq, sample Day_6_JQ1", "value": 18.5683}, {"measurement": "Ckb value_2", "setting": "mRNA-Seq, sample Day_6_JQ1", "value": 310.111}, {"measurement": "Cks1b value_2", "setting": "mRNA-Seq, sample Day_6_JQ1", "value": 113.98}, {"measurement": "Colec11 value_2", "setting": "mRNA-Seq, sample Day_6_JQ1", "value": 68.8593}, {"measurement": "Cpt1c value_2", "setting": "mRNA-Seq, sample Day_6_JQ1", "value": 30.5415}, {"measurement": "Ctnnbip1 value_2", "setting": "mRNA-Seq, sample Day_6_JQ1", "value": 14.2922}, {"measurement": "Cyb5r3 value_2", "setting": "mRNA-Seq, sample Day_6_JQ1", "value": 256.005}, {"measurement": "Cyp1b1 value_2", "setting": "mRNA-Seq, sample Day_6_JQ1", "value": 100.635}, {"measurement": "D2Ertd750e value_2", "setting": "mRNA-Seq, sample Day_6_JQ1", "value": 10.3027}, {"measurement": "Dact3 value_2", "setting": "mRNA-Seq, sample Day_6_JQ1", "value": 26.3749}, {"measurement": "Dag1 value_2", "setting": "mRNA-Seq, sample Day_6_JQ1", "value": 162.916}, {"measurement": "Dcbld2 value_2", "setting": "mRNA-Seq, sample Day_6_JQ1", "value": 73.5335}, {"measurement": "Dcxr value_2", "setting": "mRNA-Seq, sample Day_6_JQ1", "value": 36.0469}, {"measurement": "Ddr2 value_2", "setting": "mRNA-Seq, sample Day_6_JQ1", "value": 63.2059}, {"measurement": "Diap3 value_2", "setting": "mRNA-Seq, sample Day_6_JQ1", "value": 10.7413}, {"measurement": "Dlgap5 value_2", "setting": "mRNA-Seq, sample Day_6_JQ1", "value": 10.9428}, {"measurement": "Dzip3 value_2", "setting": "mRNA-Seq, sample Day_6_JQ1", "value": 8.399}, {"measurement": "E2f1 value_2", "setting": "mRNA-Seq, sample Day_6_JQ1", "value": 21.0746}, {"measurement": "Elovl5 value_2", "setting": "mRNA-Seq, sample Day_6_JQ1", "value": 65.5058}, {"measurement": "Eno2 value_2", "setting": "mRNA-Seq, sample Day_6_JQ1", "value": 9.68}, {"measurement": "Ephb3 value_2", "setting": "mRNA-Seq, sample Day_6_JQ1", "value": 16.6667}, {"measurement": "Ephx1 value_2", "setting": "mRNA-Seq, sample Day_6_JQ1", "value": 132.832}, {"measurement": "Evc value_2", "setting": "mRNA-Seq, sample Day_6_JQ1", "value": 10.4125}, {"measurement": "Ext2 value_2", "setting": "mRNA-Seq, sample Day_6_JQ1", "value": 87.8458}, {"measurement": "Fam171b value_2", "setting": "mRNA-Seq, sample Day_6_JQ1", "value": 12.8947}, {"measurement": "Fbxo5 value_2", "setting": "mRNA-Seq, sample Day_6_JQ1", "value": 11.9069}, {"measurement": "Fignl1 value_2", "setting": "mRNA-Seq, sample Day_6_JQ1", "value": 12.5326}, {"measurement": "Foxm1 value_2", "setting": "mRNA-Seq, sample Day_6_JQ1", "value": 15.7609}, {"measurement": "Fscn1 value_2", "setting": "mRNA-Seq, sample Day_6_JQ1", "value": 385.037}, {"measurement": "Gas1 value_2", "setting": "mRNA-Seq, sample Day_6_JQ1", "value": 80.3077}, {"measurement": "Gmnn value_2", "setting": "mRNA-Seq, sample Day_6_JQ1", "value": 19.8433}, {"measurement": "Gpm6b value_2", "setting": "mRNA-Seq, sample Day_6_JQ1", "value": 19.7607}, {"measurement": "Gpx1 value_2", "setting": "mRNA-Seq, sample Day_6_JQ1", "value": 332.885}, {"measurement": "Gstt3 value_2", "setting": "mRNA-Seq, sample Day_6_JQ1", "value": 14.4369}, {"measurement": "Gyg value_2", "setting": "mRNA-Seq, sample Day_6_JQ1", "value": 82.2854}, {"measurement": "Hadh value_2", "setting": "mRNA-Seq, sample Day_6_JQ1", "value": 56.1898}, {"measurement": "Hand2 value_2", "setting": "mRNA-Seq, sample Day_6_JQ1", "value": 110.598}, {"measurement": "Hmmr value_2", "setting": "mRNA-Seq, sample Day_6_JQ1", "value": 17.0843}, {"measurement": "Id3 value_2", "setting": "mRNA-Seq, sample Day_6_JQ1", "value": 1063.75}, {"measurement": "Ildr2 value_2", "setting": "mRNA-Seq, sample Day_6_JQ1", "value": 11.4416}, {"measurement": "Kif2c value_2", "setting": "mRNA-Seq, sample Day_6_JQ1", "value": 11.8118}, {"measurement": "Kif4 value_2", "setting": "mRNA-Seq, sample Day_6_JQ1", "value": 7.332}, {"measurement": "Kif11 value_2", "setting": "mRNA-Seq, sample Day_6_JQ1", "value": 10.8132}, {"measurement": "Kif20b value_2", "setting": "mRNA-Seq, sample Day_6_JQ1", "value": 7.299}, {"measurement": "Kif22 value_2", "setting": "mRNA-Seq, sample Day_6_JQ1", "value": 14.9542}, {"measurement": "Lamb2 value_2", "setting": "mRNA-Seq, sample Day_6_JQ1", "value": 41.1365}, {"measurement": "Lhfp value_2", "setting": "mRNA-Seq, sample Day_6_JQ1", "value": 371.966}, {"measurement": "Lphn1 value_2", "setting": "mRNA-Seq, sample Day_6_JQ1", "value": 20.1469}, {"measurement": "Melk value_2", "setting": "mRNA-Seq, sample Day_6_JQ1", "value": 7.467}, {"measurement": "Mfge8 value_2", "setting": "mRNA-Seq, sample Day_6_JQ1", "value": 379.144}, {"measurement": "Mki67 value_2", "setting": "mRNA-Seq, sample Day_6_JQ1", "value": 27.8603}, {"measurement": "Mmp11 value_2", "setting": "mRNA-Seq, sample Day_6_JQ1", "value": 36.1215}, {"measurement": "Mras value_2", "setting": "mRNA-Seq, sample Day_6_JQ1", "value": 15.4481}, {"measurement": "Mrc2 value_2", "setting": "mRNA-Seq, sample Day_6_JQ1", "value": 111.626}, {"measurement": "Msx1 value_2", "setting": "mRNA-Seq, sample Day_6_JQ1", "value": 5.962}, {"measurement": "Ndc80 value_2", "setting": "mRNA-Seq, sample Day_6_JQ1", "value": 8.604}, {"measurement": "Nkd1 value_2", "setting": "mRNA-Seq, sample Day_6_JQ1", "value": 16.9471}, {"measurement": "Nuf2 value_2", "setting": "mRNA-Seq, sample Day_6_JQ1", "value": 9.227}, {"measurement": "Oat value_2", "setting": "mRNA-Seq, sample Day_6_JQ1", "value": 213.454}, {"measurement": "Osbpl5 value_2", "setting": "mRNA-Seq, sample Day_6_JQ1", "value": 41.3593}, {"measurement": "Osr1 value_2", "setting": "mRNA-Seq, sample Day_6_JQ1", "value": 16.6329}, {"measurement": "Pbx1 value_2", "setting": "mRNA-Seq, sample Day_6_JQ1", "value": 48.4716}, {"measurement": "Pld3 value_2", "setting": "mRNA-Seq, sample Day_6_JQ1", "value": 190.597}, {"measurement": "Plxdc2 value_2", "setting": "mRNA-Seq, sample Day_6_JQ1", "value": 26.1768}, {"measurement": "Prc1 value_2", "setting": "mRNA-Seq, sample Day_6_JQ1", "value": 30.6759}, {"measurement": "Ptgr1 value_2", "setting": "mRNA-Seq, sample Day_6_JQ1", "value": 25.0296}, {"measurement": "Pxmp4 value_2", "setting": "mRNA-Seq, sample Day_6_JQ1", "value": 17.7124}, {"measurement": "Pygb value_2", "setting": "mRNA-Seq, sample Day_6_JQ1", "value": 42.1403}, {"measurement": "Racgap1 value_2", "setting": "mRNA-Seq, sample Day_6_JQ1", "value": 22.85}, {"measurement": "Rarb value_2", "setting": "mRNA-Seq, sample Day_6_JQ1", "value": 70.6683}, {"measurement": "S100a6 value_2", "setting": "mRNA-Seq, sample Day_6_JQ1", "value": 1608.42}, {"measurement": "Scrn1 value_2", "setting": "mRNA-Seq, sample Day_6_JQ1", "value": 7.911}, {"measurement": "Sipa1l1 value_2", "setting": "mRNA-Seq, sample Day_6_JQ1", "value": 28.6555}, {"measurement": "Slit2 value_2", "setting": "mRNA-Seq, sample Day_6_JQ1", "value": 14.8622}, {"measurement": "Smc2 value_2", "setting": "mRNA-Seq, sample Day_6_JQ1", "value": 19.557}, {"measurement": "Smc4 value_2", "setting": "mRNA-Seq, sample Day_6_JQ1", "value": 33.8803}, {"measurement": "Snap47 value_2", "setting": "mRNA-Seq, sample Day_6_JQ1", "value": 103.523}, {"measurement": "Spc24 value_2", "setting": "mRNA-Seq, sample Day_6_JQ1", "value": 8.494}, {"measurement": "Spry1 value_2", "setting": "mRNA-Seq, sample Day_6_JQ1", "value": 44.5222}, {"measurement": "St5 value_2", "setting": "mRNA-Seq, sample Day_6_JQ1", "value": 35.2195}, {"measurement": "Tacc3 value_2", "setting": "mRNA-Seq, sample Day_6_JQ1", "value": 18.1794}, {"measurement": "Tfdp2 value_2", "setting": "mRNA-Seq, sample Day_6_JQ1", "value": 10.5854}, {"measurement": "Tinagl1 value_2", "setting": "mRNA-Seq, sample Day_6_JQ1", "value": 326.013}, {"measurement": "Tmem53 value_2", "setting": "mRNA-Seq, sample Day_6_JQ1", "value": 17.4035}, {"measurement": "Tmsb10 value_2", "setting": "mRNA-Seq, sample Day_6_JQ1", "value": 1117.74}, {"measurement": "Trim59 value_2", "setting": "mRNA-Seq, sample Day_6_JQ1", "value": 27.2401}, {"measurement": "Tro value_2", "setting": "mRNA-Seq, sample Day_6_JQ1", "value": 7.307}, {"measurement": "Trp53inp2 value_2", "setting": "mRNA-Seq, sample Day_6_JQ1", "value": 99.8045}, {"measurement": "Twist1 value_2", "setting": "mRNA-Seq, sample Day_6_JQ1", "value": 19.9784}, {"measurement": "Uhrf1 value_2", "setting": "mRNA-Seq, sample Day_6_JQ1", "value": 16.7743}, {"measurement": "Vgll3 value_2", "setting": "mRNA-Seq, sample Day_6_JQ1", "value": 95.3643}, {"measurement": "Wdr35 value_2", "setting": "mRNA-Seq, sample Day_6_JQ1", "value": 9.874}, {"measurement": "Wt1 value_2", "setting": "mRNA-Seq, sample Day_6_JQ1", "value": 29.0084}, {"measurement": "Zbtb7c value_2", "setting": "mRNA-Seq, sample Day_6_JQ1", "value": 7.895}, {"measurement": "number of genes upregulated during HSC activation (more than 900) that are suppressed", "setting": "primary HSCs, days 3 and 6 vs day 1, JQ1 500 nM", "value": "more than 400 genes"}, {"measurement": "induction of key marker genes Col1a1, Acta2, Col1a2 and Des during HSC activation", "setting": "primary HSCs, JQ1 500 nM, mRNA-Seq and qRT-PCR", "value": "drastically abolished"}]}
